Columns and labels:
Format in all cases: ADME, organism-based
[1] = AUC (0 to infinity) in healthy human at 500 mg, po administered as single dose; set-up: dose 500 mg, route oral, time infinity; conditions: plasma
[2] = Cmax in healthy human at 500 mg, po administered as single dose; set-up: dose 500 mg, route oral; conditions: in vivo
[3] = Half life in healthy human at 400 mg, po administered as single dose; conditions: in vivo
[4] = AUC (0 to infinity) in healthy human at 400 mg, po administered as single dose; set-up: dose 400 mg, time infinity, route oral; conditions: plasma
[5] = Cmax in healthy human at 400 mg, po administered as single dose; set-up: dose 400 mg, route oral; conditions: in vivo
[6] = Terminal half life in healthy human at 500 mg, po administered as single dose; conditions: in vivo
[7] = Terminal half life in healthy human at 400 mg, po administered as single dose; conditions: in vivo
[8] = Distribution half life in healthy human at 400 mg, po administered as single dose; conditions: in vivo

Row | Structure (SMILES) | AUC(0-inf) [1] [ng·h/mL] | AUC(0-inf) [4] [ng·h/mL] | Cmax [5] [ng/mL] | further results
1 | CC[C@H]1OC(=O)[C@H](C)[C@@H](O[C@H]2C[C@@](C)(OC)[C@@H](O)[C@H](C)O2)[C@H](C)[C@@H](O[C@@H]2O[C@H](C)C[C@H](N(C)C)[C@H]2O)[C@](C)(O)C[C@@H](C)C(=O)[C@H](C)[C@@H](O)[C@]1(C)O [ERYTHROMYCIN] | 7700 |  |  | Cmax [2]: 2000 ng/mL
2 | CC[C@H]1OC(=O)[C@H](C)[C@@H](O[C@H]2C[C@@](C)(OC)[C@@H](O)[C@H](C)O2)[C@H](C)[C@@H](O[C@@H]2O[C@H](C)C[C@H](N(C)C)[C@H]2O)[C@](C)(OC)C[C@@H](C)C(=O)[C@H](C)[C@@H](O)[C@]1(C)O [CLARITHROMYCIN] |  | 7520 | 780 | half-life [3]: 3.89 h
3 | CC[C@H]1OC(=O)[C@H](C)[C@@H](O[C@H]2C[C@@](C)(OC)[C@@H](O)[C@H](C)O2)[C@H](C)[C@@H](O[C@@H]2O[C@H](C)C[C@H](N(C)C)[C@H]2O)[C@](C)(O)C[C@@H](C)CN(C)[C@H](C)[C@@H](O)[C@]1(C)O [AZITHROMYCIN] | 3390 |  |  | half-life [6]: 35 h
4 | CC[C@H]1OC(=O)[C@H](C)C(=O)[C@H](C)[C@@H](O[C@@H]2O[C@H](C)C[C@H](N(C)C)[C@H]2O)[C@](C)(OC)C[C@@H](C)C(=O)[C@H](C)[C@H]2N(CCCCn3cnc(-c4cccnc4)c3)C(=O)O[C@]12C [TELITHROMYCIN] |  | 3090 | 800 | half-life [7]: 6.68 h; half-life [8]: 2.13 h
